According to PubChem BioAssay (NCI):
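Tested at 5 concentrations; 48 h exposure; 96-well plates; endpoints linearly interpolated, else capped at highest concentration. Abbreviation: GI50, concentration required for 50% inhibition of growth. The concentration for full growth arrest is given as TGI.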

How the values were obtained:
Assay in all cases: NCI-60 cell line screen, 48 h
786-0 renal = system: 786-0 renal
A498 renal = system: A498 renal
A549 NSCLC = system: A549 NSCLC
ACHN renal = system: ACHN renal
BT-549 breast = system: BT-549 breast
CAKI-1 renal = system: CAKI-1 renal
CCRF-CEM leukemia = system: CCRF-CEM leukemia
COLO 205 colon = system: COLO 205 colon
DU-145 prostate = system: DU-145 prostate
EKVX NSCLC = system: EKVX NSCLC
HCC-2998 colon = system: HCC-2998 colon
HCT-116 colon = system: HCT-116 colon
HCT-15 colon = system: HCT-15 colon
HL-60(TB) leukemia = system: HL-60(TB) leukemia
HOP-62 NSCLC = system: HOP-62 NSCLC
HOP-92 NSCLC = system: HOP-92 NSCLC
HS 578T breast = system: HS 578T breast
HT29 colon = system: HT29 colon
IGROV1 ovarian = system: IGROV1 ovarian
K-562 leukemia = system: K-562 leukemia
KM12 colon = system: KM12 colon
LOX IMVI melanoma = system: LOX IMVI melanoma
M14 melanoma = system: M14 melanoma
MALME-3M melanoma = system: MALME-3M melanoma
MCF7 breast = system: MCF7 breast
MDA-MB-231 breast = system: MDA-MB-231 breast
MDA-MB-435 = system: MDA-MB-435
MDA-MB-468 breast = system: MDA-MB-468 breast
MOLT-4 leukemia = system: MOLT-4 leukemia
NCI-H226 lung = system: NCI-H226 lung
NCI-H23 lung = system: NCI-H23 lung
NCI-H460 lung = system: NCI-H460 lung
NCI-H522 lung = system: NCI-H522 lung
NCI/ADR-RES ovarian = system: NCI/ADR-RES ovarian
OVCAR-3 ovarian = system: OVCAR-3 ovarian
OVCAR-4 ovarian = system: OVCAR-4 ovarian
OVCAR-5 ovarian = system: OVCAR-5 ovarian
OVCAR-8 ovarian = system: OVCAR-8 ovarian
PC-3 prostate = system: PC-3 prostate
RPMI-8226 leukemia = system: RPMI-8226 leukemia
RXF 393 renal = system: RXF 393 renal
SF-268 CNS = system: SF-268 CNS
SF-295 CNS = system: SF-295 CNS
SF-539 CNS = system: SF-539 CNS
SK-MEL-2 melanoma = system: SK-MEL-2 melanoma
SK-MEL-28 melanoma = system: SK-MEL-28 melanoma
SK-MEL-5 melanoma = system: SK-MEL-5 melanoma
SK-OV-3 ovarian = system: SK-OV-3 ovarian
SN12C renal = system: SN12C renal
SNB-19 CNS = system: SNB-19 CNS
SNB-75 CNS = system: SNB-75 CNS
SR leukemia = system: SR leukemia
SW-620 colon = system: SW-620 colon
T-47D breast = system: T-47D breast
TK-10 renal = system: TK-10 renal
U251 CNS = system: U251 CNS
UACC-257 melanoma = system: UACC-257 melanoma
UACC-62 melanoma = system: UACC-62 melanoma
UO-31 renal = system: UO-31 renal

Compound `O=C(CSc1nc2ccccc2c(=O)n1-c1ccc(Cl)cc1)Nc1ccc(-c2nc3ccc([N+](=O)[O-])cc3[nH]2)cc1` has a GI50 (786-0 renal) of 2.91 µM, a TGI (786-0 renal) of 8.4 µM and a GI50 (A498 renal) of 3.23 µM. For the same compound, the TGI (A498 renal) was 12.9 µM, the GI50 (A549 NSCLC) was 1.88 µM and the TGI (A549 NSCLC) was 6.81 µM. It also gave a GI50 (ACHN renal) of 3.1 µM, a TGI (ACHN renal) of 21.2 µM and a GI50 (BT-549 breast) of 1.84 µM. For the same compound, the TGI (BT-549 breast) was 6.61 µM, the GI50 (CAKI-1 renal) was 12 µM and the TGI (CAKI-1 renal) was > 100 µM. The GI50 (CCRF-CEM leukemia) was 13.5 µM, the TGI (CCRF-CEM leukemia) was > 100 µM and the GI50 (COLO 205 colon) was 2.34 µM. The TGI (COLO 205 colon) was 6.07 µM, the GI50 (DU-145 prostate) was 3.79 µM and the TGI (DU-145 prostate) was > 100 µM. It also gave a GI50 (EKVX NSCLC) of 1.91 µM, a TGI (EKVX NSCLC) of 5.7 µM and a GI50 (HCC-2998 colon) of 2.95 µM. The TGI (HCC-2998 colon) was 15.2 µM, the GI50 (HCT-116 colon) was 2.9 µM and the TGI (HCT-116 colon) was > 100 µM. For the same compound, the GI50 (HCT-15 colon) was 2.77 µM, the TGI (HCT-15 colon) was > 100 µM and the GI50 (HL-60(TB) leukemia) was 28.1 µM. The TGI (HL-60(TB) leukemia) was > 100 µM, the GI50 (HOP-62 NSCLC) was 1.26 µM and the TGI (HOP-62 NSCLC) was 3 µM. For the same compound, the GI50 (HOP-92 NSCLC) was 1.75 µM, the TGI (HOP-92 NSCLC) was 6.07 µM and the GI50 (HS 578T breast) was 1.6 µM. The TGI (HS 578T breast) was 4.57 µM, the GI50 (HT29 colon) was 2.83 µM and the TGI (HT29 colon) was 11.4 µM. It also gave a GI50 (IGROV1 ovarian) of 1.87 µM, a TGI (IGROV1 ovarian) of 5 µM and a GI50 (K-562 leukemia) of 2.63 µM. For the same compound, the TGI (K-562 leukemia) was > 100 µM, the GI50 (KM12 colon) was 10.2 µM and the TGI (KM12 colon) was > 100 µM. It also gave a GI50 (LOX IMVI melanoma) of 1.44 µM, a TGI (LOX IMVI melanoma) of 3.04 µM and a GI50 (M14 melanoma) of 2.32 µM. The TGI (M14 melanoma) was 8.05 µM, the GI50 (MALME-3M melanoma) was 2.18 µM and the TGI (MALME-3M melanoma) was 7.44 µM. For the same compound, the GI50 (MCF7 breast) was 1.18 µM, the TGI (MCF7 breast) was 5.09 µM and the GI50 (MDA-MB-231 breast) was 1.82 µM. The TGI (MDA-MB-231 breast) was 4.62 µM, the GI50 (MDA-MB-435) was 2.98 µM and the TGI (MDA-MB-435) was 13.1 µM. For the same compound, the GI50 (MDA-MB-468 breast) was 1.4 µM, the TGI (MDA-MB-468 breast) was 3.2 µM and the GI50 (MOLT-4 leukemia) was 3.21 µM. The TGI (MOLT-4 leukemia) was > 100 µM, the GI50 (NCI-H226 lung) was 1.77 µM and the TGI (NCI-H226 lung) was 4.04 µM. It also gave a GI50 (NCI-H23 lung) of 1.8 µM, a TGI (NCI-H23 lung) of 5.36 µM and a GI50 (NCI-H460 lung) of 1.56 µM. For the same compound, the TGI (NCI-H460 lung) was 3.9 µM, the GI50 (NCI-H522 lung) was 1.82 µM and the TGI (NCI-H522 lung) was 4.65 µM. The GI50 (NCI/ADR-RES ovarian) was 5.29 µM, the TGI (NCI/ADR-RES ovarian) was > 100 µM and the GI50 (OVCAR-3 ovarian) was 2.53 µM. The TGI (OVCAR-3 ovarian) was 7.43 µM, the GI50 (OVCAR-4 ovarian) was 1.59 µM and the TGI (OVCAR-4 ovarian) was 5.11 µM. The GI50 (OVCAR-5 ovarian) was 2.65 µM, the TGI (OVCAR-5 ovarian) was 20.5 µM and the GI50 (OVCAR-8 ovarian) was 1.08 µM. For the same compound, the TGI (OVCAR-8 ovarian) was 2.75 µM, the GI50 (PC-3 prostate) was 1.79 µM and the TGI (PC-3 prostate) was 7.01 µM. For the same compound, the GI50 (RPMI-8226 leukemia) was 4.4 µM, the TGI (RPMI-8226 leukemia) was > 100 µM and the GI50 (RXF 393 renal) was 1.5 µM. The TGI (RXF 393 renal) was 3.69 µM, the GI50 (SF-268 CNS) was 4.62 µM and the TGI (SF-268 CNS) was > 100 µM. It also gave a GI50 (SF-295 CNS) of 1.73 µM, a TGI (SF-295 CNS) of 4.56 µM and a GI50 (SF-539 CNS) of 1.9 µM. The TGI (SF-539 CNS) was 4.06 µM, the GI50 (SK-MEL-2 melanoma) was 1.95 µM and the TGI (SK-MEL-2 melanoma) was 5.31 µM. For the same compound, the GI50 (SK-MEL-28 melanoma) was 1.72 µM, the TGI (SK-MEL-28 melanoma) was 3.87 µM and the GI50 (SK-MEL-5 melanoma) was 3.01 µM. For the same compound, the TGI (SK-MEL-5 melanoma) was 11.7 µM, the GI50 (SK-OV-3 ovarian) was 2.82 µM and the TGI (SK-OV-3 ovarian) was 32.7 µM. For the same compound, the GI50 (SN12C renal) was 1.58 µM, the TGI (SN12C renal) was 4.21 µM and the GI50 (SNB-19 CNS) was 2.33 µM. For the same compound, the TGI (SNB-19 CNS) was 8.77 µM, the GI50 (SNB-75 CNS) was 2.03 µM and the TGI (SNB-75 CNS) was 8.21 µM. It also gave a GI50 (SR leukemia) of 2.16 µM, a TGI (SR leukemia) of 24.1 µM and a GI50 (SW-620 colon) of 3.52 µM. For the same compound, the TGI (SW-620 colon) was 74.1 µM, the GI50 (T-47D breast) was 1.41 µM and the TGI (T-47D breast) was 3.56 µM. It also gave a GI50 (TK-10 renal) of 3.61 µM, a TGI (TK-10 renal) of 20.5 µM and a GI50 (U251 CNS) of 1.59 µM. For the same compound, the TGI (U251 CNS) was 3.58 µM, the GI50 (UACC-257 melanoma) was 1.69 µM and the TGI (UACC-257 melanoma) was 4.95 µM. The GI50 (UACC-62 melanoma) was 1.76 µM, the TGI (UACC-62 melanoma) was 4.78 µM and the GI50 (UO-31 renal) was 30 µM. The TGI (UO-31 renal) was > 100 µM.
